Entries after “also recorded” stand apart in the source; their conditions may differ.
Tests used:
[1] = test system: mean arterial pressure and heart rate of anesthetized rats; assay: Systemic hemodynamic effects, intravenous, anesthetized rats (Example 5); format: in vivo, rat (male Wistar)
Method: The time for onset and maximal response were evaluated, as well as the time taken for the response to return to 50% of the baseline value for comparing effective lives. Among other effects, lowering of the blood pressure inside the blood vessels is beneficial for the treatment of congestive heart failure by reducing the vascular resistance blood flow, and thus the work load imposed on the heart.
Male Wistar rats were anesthetized with thiopentone sodium (INTRAVAL®, 120 mg kg^-1 i.p.). The trachea was cannulated to facilitate breathing. The right carotid artery was cannulated and connected to a pressure transducer (Spectramed P23XL), for the measurement of mean arterial pressure (MAP) and heart rate (HR) which were continuously recorded on a 4-channel Grass 7D polygraph recorder (Grass, Mass., USA). The left femoral vein or the right jugular vein was cannulated for the administration of drugs. The body temperature of the test animal was maintained at 37±1° C. by means of a rectal probe thermometer attached to a homeothermic blanket control unit (Harvard Apparatus Ltd).
After a 15 minute stabilization period, the animals were injected once intravenously with selected doses of each compound, and hemodynamic parameters were continuously monitored for three hours in order to ascertain the duration of action of the compounds under study.

[2] = test system: U44069-induced pulmonary hypertension; assay: Effects on pulmonary vascular hypertension in sheep in vivo (Example 16); settings: FIG. 5
Excerpt: Each sheep was monitored for measurement of pulmonary arterial pressure (PPA), left atrial pressure (PLA), systemic arterial pressure (PSA), cardiac output (CO), and heart rate (HR). Plasma samples were taken from the sheep subjects to measure drug levels within the blood throughout the experiment. The experiment began upon intravenously infusing a known pulmonary arterial hypertension inducer in a customary manner. The rate of inducement was adjusted to cause the pulmonary vascular resistance (PVR) to increase 3 to 4 times that of the initial baseline PVR. PVR is calculated as the difference between PPA and PLA, divided by the CO. After a stabilization period, a sample of a present prostaglandin compound was administered via a surgically prepared tracheotomy using a MEDICATOR® aerosol drug delivery system (Healthline Medical Inc., Baldwin Park, Calif.), or via intravenous infusion.

[3] = i.v., Compound X 0.1 and 1 mg/kg, Compound 1 doses of b230

**Q.** How did the “effective life (MAP returning to 50% of baseline value)” value ([1]; 0.1 mg/kg i.v.) turn out when `CCCCC[C@H](O)CC[C@@H]1[C@H]2Cc3cccc(OCC(=O)O)c3C[C@H]2C[C@H]1O` [Compound X] was run?
**A.** Its value is “about fifteen”.

**Q.** And the “effective life (MAP returning to 50% of baseline value)” value ([1]; 1.0 mg/kg i.v.)?
**A.** The value was “about thirty”.

**Q.** What about the “decline in MAP” value ([1]; i.v.) of the same molecule?
**A.** Its value is “immediate, dose related decline in the MAP; also recorded: substantial dose-related fall in MAP”.

**Q.** What about the “maximum decline in MAP” value [1, 3] of the same molecule?
**A.** Its value is “about 70 mm Hg”.

**Q.** What about the “time of maximum decline in MAP” value [1, 3] of the same molecule?
**A.** The value was “within the first minute”.

**Q.** What about the “PPA-PLA before administration (normalized)” value ([2]; 1 μg/kg aerosol over 15 minutes) of the same molecule?
**A.** The value was “about 11.25 cmH2 O”.

**Q.** What about the “PPA-PLA after administration (normalized)” value ([2]; 1 μg/kg aerosol, 10 minutes after termination) of the same molecule?
**A.** Its value is “about 5 cmH2 O”.
